Experimental data taken from patent US11578087B2, “Oxaborole esters and uses thereof” (priority 2016, dated 2023).

Key:
[1] = test system: IL3000 T. congolense (drug sensitive) strain; experiment: In vitro Alamar Blue 72 h drug sensitivity assay for T. congolense; type: cell-based, Trypanosoma congolense; settings: Trypanosoma congolense, 72 h, bloodstream form, 69 h + 3 h Resazurin, 34° C., read-out: IC50: I Org. Growth T. congolense 3 d
In short: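 IC50 values derive from 11-point curves averaged over at least three independent runs, with fluorescence read at 536 nm excitation and 588 nm emission. Resazurin was added for a final 3 h after 69 h compound exposure of bloodstream forms (HMI medium, 20% bovine serum, 34° C, 5% CO2).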

[2] = test system: T. cruzi amastigote (Td Tomato-modified) in Vero cells; experiment: In vitro IC50 measurement of T. cruzi amastigote killing using Td Tomato-modified T. cruzi; type: cell-based; settings: Trypanosoma cruzi, 72 h, fluorescence, read-out: IC50: I Org. amastigote Growth T. cruzi 3 d
In short: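 IC50/IC90 came from nonlinear regression of Day 3 minus Day 0 fluorescence (544/612 nm), correcting for input parasites. Final compound concentrations spanned 5 nM–5 uM on Td Tomato T. cruzi-infected Vero cells, 72 h at 37 °C.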

COCCOC(=O)[C@@H](NC(=O)c1ccc2c(c1C)B(O)OC2)C(C)C [Example 6-107, 2-Methoxyethyl (1-hydroxy-7-methyl-1,3-dihydrobenzo[c][1,2]oxaborole-6-carbonyl)-L-valinate]
IC50 [1]: < 0.5 nM
IC50 [2]: ≤ 20 nM

COCN(COC)S(=O)(=O)c1ccc(COC(=O)[C@@H](NC(=O)c2ccc3c(c2C)B(O)OC3)C(C)C)cc1 [Example 6-109, 4-(N,N-bis(methoxymethyl)sulfamoyl)benzyl (1-hydroxy-7-methyl-1,3-dihydrobenzo[c][1,2]oxaborole-6-carbonyl)-L-valinate]
IC50 [1]: 0.51 to 9.99 nM
IC50 [2]: 21 to 999 nM

Cc1c(C(=O)N[C@H](C(=O)OCc2ccc(S(C)(=O)=O)c(CN(C)C)c2)C(C)C)ccc2c1B(O)OC2 [Example 6-110, 3-((Dimethylamino)methyl)-4-(methylsulfonyl)benzyl (1-hydroxy-7-methyl-1,3-dihydrobenzo[c][1,2]oxaborole-6-carbonyl)-L-valinate]
IC50 [1]: 0.51 to 9.99 nM
IC50 [2]: 21 to 999 nM

Cc1c(C(=O)N[C@H](C(=O)OCc2ccc(CN3CCN(C)CC3)cc2)C(C)C)ccc2c1B(O)OC2 [Example 6-111, 4-((4-Methylpiperazin-1-yl)methyl)benzyl (1-hydroxy-7-methyl-1,3-dihydrobenzo[c][1,2]oxaborole-6-carbonyl)-L-valinate]
IC50 [1]: 0.51 to 9.99 nM
IC50 [2]: ≤ 20 nM

Cc1c(C(=O)N[C@H](C(=O)OC(C)C)C(C)C)ccc2c1B(O)OC2 [Example 6-112, Isopropyl (1-hydroxy-7-methyl-1,3-dihydrobenzo[c][1,2]oxaborole-6-carbonyl)-L-valinate]
IC50 [1]: 0.51 to 9.99 nM
IC50 [2]: ≤ 20 nM

Cc1c(C(=O)N[C@H](C(=O)OCc2cccc(CN3CCCC3)c2)C(C)C)ccc2c1B(O)OC2 [Example 6-113, 3-(Pyrrolidin-1-ylmethyl)benzyl (1-hydroxy-7-methyl-1,3-dihydrobenzo[c][1,2]oxaborole-6-carbonyl)-L-valinate]
IC50 [1]: < 0.5 nM
IC50 [2]: ≤ 20 nM

Cc1c(C(=O)N[C@H](C(=O)OCC2CCN(C)CC2)C(C)C)ccc2c1B(O)OC2 [Example 6-114, (1-Methylpiperidin-4-yl)methyl (1-hydroxy-7-methyl-1,3-dihydrobenzo[c][1,2]oxaborole-6-carbonyl)-L-valinate]
IC50 [1]: 0.51 to 9.99 nM
IC50 [2]: 21 to 999 nM

Cc1c(C(=O)N[C@H](C(=O)OCc2cccc(CN3CCNCC3)c2)C(C)C)ccc2c1B(O)OC2 [Example 6-117, 3-(Piperazin-1-ylmethyl)benzyl (1-hydroxy-7-methyl-1,3-dihydrobenzo[c][1,2]oxaborole-6-carbonyl)-L-valinate]
IC50 [1]: 10 to 5000 nM
IC50 [2]: ≥ 1000 nM

Cc1c(C(=O)N(C)[C@H](C(=O)OCc2ccc(F)cc2)C(C)C)ccc2c1B(O)OC2 [Example 6-118, 4-Fluorobenzyl N-(1-hydroxy-7-methyl-1,3-dihydrobenzo[c][1,2]oxaborole-6-carbonyl)-N-methyl-L-valinate]
IC50 [1]: 10 to 5000 nM
IC50 [2]: ≥ 1000 nM

Cc1c(C(=O)N[C@H](C(=O)OCC2CCCCC2)C(C)C)ccc2c1B(O)OC2 [Example 6-119, Cyclohexylmethyl (1-hydroxy-7-methyl-1,3-dihydrobenzo[c][1,2]oxaborole-6-carbonyl)-L-valinate]
IC50 [1]: < 0.5 nM
IC50 [2]: ≤ 20 nM

Cc1c(C(=O)N[C@H](C(=O)OCc2cncs2)C(C)C)ccc2c1B(O)OC2 [Example 6-120, Thiazol-5-ylmethyl (1-hydroxy-7-methyl-1,3-dihydrobenzo[c][1,2]oxaborole-6-carbonyl)-L-valinate]
IC50 [1]: 0.51 to 9.99 nM
IC50 [2]: 21 to 999 nM

Cc1c(C(=O)N[C@H](C(=O)OCCc2ccc(F)cc2)C(C)C)ccc2c1B(O)OC2 [Example 6-121, 4-Fluorophenethyl (1-hydroxy-7-methyl-1,3-dihydrobenzo[c][1,2]oxaborole-6-carbonyl)-L-valinate]
IC50 [1]: < 0.5 nM
IC50 [2]: ≤ 20 nM
